Legend:
[1] = cited from earlier work
UMPS^KO/KO K562 cells = experiment: K562 xenograft model, bioluminescence imaging; assay type: in vivo, NSG mice; conditions: mice fed with 8% UTA
Text: (§1) For the K562 xenograft assay, 6 to 12 weeks old male NOD SCID gamma mouse (NSG) mice were transplanted with 1×10^6 K562 cells resuspended in […]® protein mixture (Corning, Inc.) 1:1 diluted with PBS under anesthesia. All animals were kept and handled according to institutional guidelines and the experimental protocol was approved by Stanford University's Administrative Panel on Laboratory Animal Care.
(§2) The previously engineered UMPSK^KO/KO K562 cell line expressing firefly luciferase (FLuc) was used in a xenograft model in NSG mice. […] Cas9 RNP is targeted to exon 1 of the HBB locus with a guide RNA and a DNA donor template transduced by rAAV6 which carries a FLuc-2A-GFP-polyA cassette under control of the SFFV promoter. FACS analysis was performed four days after targeting of K562 cells to evaluate GFP expression before sorting of the GFP+ population. In a control group administered the AAV only, 1.61% of the cells were GFP+, and […]. […]
(§3) UMPSK^KO/KO K562 cells or control cells were transplanted subcutaneously and observed weekly with bioluminescence imaging. Luminescence imaging of K562 cells was performed 5 minutes after intraperitoneal (ip) injection of 125 mg/kg D-Luciferin (PerkinElmer) on an IVIS Spectrum imaging system (PerkinElmer). […]

[2] = system: K562 cells with wild-type UMPS; experiment: K562 xenograft model, bioluminescence imaging; assay type: in vivo, NSG mice; conditions: UTA supplemented food (same with normal food)
Text: as §1, §2, §3

CC(=O)OC[C@H]1O[C@@H](n2ccc(=O)[nH]c2=O)[C@H](OC(C)=O)[C@@H]1OC(C)=O [UTA, uridine triacetate]
Increase of uridine serum levels ([1]; humans and mouse models, administration as prodrug): greater than 10 fold
Tolerability ([1]; mice, food enriched with 8% (w/w) UTA): well tolerated
Luminescence of UMPS^KO/KO K562-derived tumors (UMPS^KO/KO K562 cells): increased
Tumor burden of UMPS wild-type K562 cells [2]: increase in tumor burden

— patent US20220290103A1, “METHODS AND COMPOSITIONS USING AUXOTROPHIC REGULATABLE CELLS” (AUXOLYTIC LTD, priority 2019, published 2022)
